ChEMBL document CHEMBL5303766, “Data for DCP probe FHT-2344” (2022)

How the values were obtained:
[1] = target: Serine/threonine-protein kinase Chk2 (Homo sapiens) (UniProt O96017); assay: CHEK2 SGC Tm panel (DSF); conditions: for ΔTm: Compound concentration 10.0 uM
[2] = target: T1, Serine/threonine-protein kinase VRK1 (Homo sapiens) (UniProt Q99986); assay: VRK1 SGC Tm panel (DSF); conditions: for ΔTm: Compound concentration 10.0 uM
T1 sequence (whole entry): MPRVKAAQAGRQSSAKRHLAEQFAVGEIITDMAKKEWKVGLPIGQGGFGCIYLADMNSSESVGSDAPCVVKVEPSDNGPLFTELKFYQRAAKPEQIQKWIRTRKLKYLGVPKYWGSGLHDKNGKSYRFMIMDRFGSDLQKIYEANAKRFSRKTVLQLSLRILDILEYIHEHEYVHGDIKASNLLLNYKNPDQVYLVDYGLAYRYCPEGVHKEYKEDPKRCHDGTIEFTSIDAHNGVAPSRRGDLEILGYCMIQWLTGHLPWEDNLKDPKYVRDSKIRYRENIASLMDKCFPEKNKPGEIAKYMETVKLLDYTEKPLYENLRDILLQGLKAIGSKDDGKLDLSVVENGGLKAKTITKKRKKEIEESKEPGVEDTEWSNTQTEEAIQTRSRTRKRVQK

Rattus norvegicus = species on record: Rattus norvegicus; conditions: Compound concentration 10.0 uM
[3] = target: Casein kinase I isoform delta (Homo sapiens) (UniProt P48730); assay: CSNK1D SGC Tm panel (DSF); conditions: for ΔTm: Compound concentration 10.0 uM
Sequence of Casein kinase I isoform delta (Homo sapiens) (P48730 whole entry, looked up, canonical isoform): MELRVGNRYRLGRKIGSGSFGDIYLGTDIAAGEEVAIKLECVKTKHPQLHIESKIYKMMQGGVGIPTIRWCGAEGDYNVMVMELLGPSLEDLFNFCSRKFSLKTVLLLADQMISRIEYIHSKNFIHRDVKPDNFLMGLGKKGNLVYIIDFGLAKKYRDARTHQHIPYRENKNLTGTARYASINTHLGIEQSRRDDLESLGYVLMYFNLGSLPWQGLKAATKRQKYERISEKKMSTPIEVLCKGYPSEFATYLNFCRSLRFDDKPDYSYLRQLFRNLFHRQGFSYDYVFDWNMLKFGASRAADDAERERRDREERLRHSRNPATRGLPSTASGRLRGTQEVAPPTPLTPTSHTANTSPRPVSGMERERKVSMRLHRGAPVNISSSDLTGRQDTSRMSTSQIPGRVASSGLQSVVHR

[4] = target: 5-hydroxytryptamine receptor 6 (Homo sapiens) (UniProt P50406); conditions: Compound concentration 10.0 uM
Sequence of 5-hydroxytryptamine receptor 6 (Homo sapiens) (P50406 whole entry): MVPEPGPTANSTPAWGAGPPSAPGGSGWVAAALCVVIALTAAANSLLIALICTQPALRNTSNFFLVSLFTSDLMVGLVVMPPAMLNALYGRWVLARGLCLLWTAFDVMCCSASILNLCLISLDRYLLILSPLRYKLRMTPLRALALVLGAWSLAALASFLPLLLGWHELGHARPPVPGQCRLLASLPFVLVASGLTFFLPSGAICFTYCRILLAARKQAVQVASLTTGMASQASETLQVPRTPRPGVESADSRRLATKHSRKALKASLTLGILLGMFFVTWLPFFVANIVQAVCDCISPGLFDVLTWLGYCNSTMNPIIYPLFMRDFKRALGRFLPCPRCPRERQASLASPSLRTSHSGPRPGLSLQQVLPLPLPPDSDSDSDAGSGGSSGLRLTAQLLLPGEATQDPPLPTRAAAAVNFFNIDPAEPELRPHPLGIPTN

[5] = target: T2, Transcription intermediary factor 1-alpha (Homo sapiens) (UniProt O15164); assay: TIF1 SGC Tm panel (DSF); conditions: for ΔTm: Compound concentration 10.0 uM
T2 sequence (whole entry): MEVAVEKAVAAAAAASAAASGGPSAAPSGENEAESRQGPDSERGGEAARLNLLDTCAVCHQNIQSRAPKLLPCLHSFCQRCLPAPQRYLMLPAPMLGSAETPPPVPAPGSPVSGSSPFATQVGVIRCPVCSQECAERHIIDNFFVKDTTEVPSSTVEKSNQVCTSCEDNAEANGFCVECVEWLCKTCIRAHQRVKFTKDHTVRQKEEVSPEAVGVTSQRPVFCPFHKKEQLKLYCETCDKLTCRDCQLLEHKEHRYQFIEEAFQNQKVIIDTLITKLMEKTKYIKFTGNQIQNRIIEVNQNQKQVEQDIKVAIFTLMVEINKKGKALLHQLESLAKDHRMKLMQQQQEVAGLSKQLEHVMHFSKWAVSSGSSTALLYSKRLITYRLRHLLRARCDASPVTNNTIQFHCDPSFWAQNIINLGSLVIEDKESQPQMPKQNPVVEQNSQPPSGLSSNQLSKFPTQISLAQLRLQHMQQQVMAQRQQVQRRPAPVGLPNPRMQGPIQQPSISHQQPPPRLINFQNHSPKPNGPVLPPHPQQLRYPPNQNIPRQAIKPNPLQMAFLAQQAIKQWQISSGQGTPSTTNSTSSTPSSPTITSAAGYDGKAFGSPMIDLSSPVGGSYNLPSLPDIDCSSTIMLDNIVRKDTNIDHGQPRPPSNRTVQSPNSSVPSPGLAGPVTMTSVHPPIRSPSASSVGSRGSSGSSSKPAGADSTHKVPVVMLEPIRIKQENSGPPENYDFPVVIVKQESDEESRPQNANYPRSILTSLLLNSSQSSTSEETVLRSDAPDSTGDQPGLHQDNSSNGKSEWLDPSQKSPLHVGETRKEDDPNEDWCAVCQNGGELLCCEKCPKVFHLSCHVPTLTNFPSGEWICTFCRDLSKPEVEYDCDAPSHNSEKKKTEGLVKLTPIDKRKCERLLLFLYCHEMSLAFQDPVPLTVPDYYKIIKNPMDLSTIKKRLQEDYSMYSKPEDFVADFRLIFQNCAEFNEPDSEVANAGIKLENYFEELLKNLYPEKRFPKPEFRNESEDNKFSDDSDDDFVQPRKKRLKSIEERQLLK

[6] = target: Cell division control protein 42 homolog (Homo sapiens) (UniProt P60953); assay: CDC42 SGC Tm panel (DSF); conditions: for ΔTm: Compound concentration 10.0 uM
Sequence of Cell division control protein 42 homolog (Homo sapiens) (P60953 whole entry, looked up): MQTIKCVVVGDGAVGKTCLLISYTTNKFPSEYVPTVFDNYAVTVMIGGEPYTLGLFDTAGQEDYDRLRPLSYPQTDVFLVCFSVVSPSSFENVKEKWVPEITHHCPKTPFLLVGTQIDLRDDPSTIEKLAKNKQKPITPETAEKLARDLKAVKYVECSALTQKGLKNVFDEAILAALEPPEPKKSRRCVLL

[7] = target: Mitogen-activated protein kinase 14 (Homo sapiens) (UniProt Q16539); assay: MAPK14 SGC Tm panel (DSF); conditions: for ΔTm: Compound concentration 10.0 uM
Sequence of Mitogen-activated protein kinase 14 (Homo sapiens) (Q16539 whole entry): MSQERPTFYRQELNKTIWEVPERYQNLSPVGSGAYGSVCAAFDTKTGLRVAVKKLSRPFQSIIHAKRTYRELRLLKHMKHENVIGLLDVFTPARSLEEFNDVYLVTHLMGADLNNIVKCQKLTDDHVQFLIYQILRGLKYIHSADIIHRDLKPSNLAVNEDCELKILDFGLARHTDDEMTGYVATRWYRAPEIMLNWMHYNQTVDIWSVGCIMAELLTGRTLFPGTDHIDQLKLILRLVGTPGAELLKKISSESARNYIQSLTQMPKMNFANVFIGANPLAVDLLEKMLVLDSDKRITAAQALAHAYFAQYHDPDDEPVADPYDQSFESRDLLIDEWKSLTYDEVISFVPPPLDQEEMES

[8] = target: Serine/threonine-protein kinase OSR1 (Homo sapiens) (UniProt O95747); assay: OXSR1 SGC Tm panel (DSF); conditions: for ΔTm: Compound concentration 10.0 uM
Sequence of Serine/threonine-protein kinase OSR1 (Homo sapiens) (O95747 2-527 limits assumed): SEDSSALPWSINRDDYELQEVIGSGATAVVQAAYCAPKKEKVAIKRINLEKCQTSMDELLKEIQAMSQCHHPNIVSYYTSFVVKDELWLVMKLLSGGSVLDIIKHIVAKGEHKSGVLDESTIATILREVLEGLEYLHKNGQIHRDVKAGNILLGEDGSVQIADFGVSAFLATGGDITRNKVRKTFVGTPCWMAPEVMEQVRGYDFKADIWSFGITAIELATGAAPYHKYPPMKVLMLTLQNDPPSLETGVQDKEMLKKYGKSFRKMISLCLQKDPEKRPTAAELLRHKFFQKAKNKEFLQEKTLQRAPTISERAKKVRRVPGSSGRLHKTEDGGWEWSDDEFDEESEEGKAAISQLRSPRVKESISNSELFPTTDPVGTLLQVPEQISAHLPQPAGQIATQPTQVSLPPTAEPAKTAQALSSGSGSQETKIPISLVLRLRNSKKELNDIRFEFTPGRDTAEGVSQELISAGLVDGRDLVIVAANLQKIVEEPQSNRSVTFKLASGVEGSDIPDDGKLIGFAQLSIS

[9] = target: T3, Serine/threonine-protein kinase ULK1 (Homo sapiens) (UniProt O75385); assay: ULK1 SGC Tm panel (DSF); conditions: for ΔTm: Compound concentration 10.0 uM
T3 sequence (whole entry): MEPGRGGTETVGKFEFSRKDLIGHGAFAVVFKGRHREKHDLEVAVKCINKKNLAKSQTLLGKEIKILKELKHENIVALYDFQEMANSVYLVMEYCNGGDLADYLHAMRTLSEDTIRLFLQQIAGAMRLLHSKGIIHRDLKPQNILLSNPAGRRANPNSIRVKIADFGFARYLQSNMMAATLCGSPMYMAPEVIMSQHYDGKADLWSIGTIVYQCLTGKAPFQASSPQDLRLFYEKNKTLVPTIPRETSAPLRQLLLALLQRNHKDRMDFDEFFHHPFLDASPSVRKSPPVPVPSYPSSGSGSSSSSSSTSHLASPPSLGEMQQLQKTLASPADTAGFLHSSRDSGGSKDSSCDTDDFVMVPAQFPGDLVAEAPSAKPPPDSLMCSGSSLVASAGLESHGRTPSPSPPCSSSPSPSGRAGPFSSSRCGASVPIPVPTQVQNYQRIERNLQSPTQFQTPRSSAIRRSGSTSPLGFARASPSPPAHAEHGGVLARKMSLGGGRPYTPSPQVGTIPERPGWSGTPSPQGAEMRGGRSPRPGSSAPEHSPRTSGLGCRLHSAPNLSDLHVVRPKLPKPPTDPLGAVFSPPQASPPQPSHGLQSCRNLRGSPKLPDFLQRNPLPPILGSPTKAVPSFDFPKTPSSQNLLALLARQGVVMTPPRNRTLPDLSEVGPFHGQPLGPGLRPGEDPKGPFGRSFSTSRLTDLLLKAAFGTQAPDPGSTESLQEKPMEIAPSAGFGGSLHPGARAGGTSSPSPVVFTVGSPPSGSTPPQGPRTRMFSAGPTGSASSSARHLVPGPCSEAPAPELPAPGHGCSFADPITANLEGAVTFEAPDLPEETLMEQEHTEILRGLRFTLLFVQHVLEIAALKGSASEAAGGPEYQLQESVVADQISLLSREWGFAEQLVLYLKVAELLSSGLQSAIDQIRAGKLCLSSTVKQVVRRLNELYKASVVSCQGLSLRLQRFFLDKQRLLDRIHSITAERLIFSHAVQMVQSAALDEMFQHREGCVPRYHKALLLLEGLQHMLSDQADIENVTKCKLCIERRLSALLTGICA

Sequence of Serine/threonine-protein kinase Chk2 (Homo sapiens) (O96017 whole entry): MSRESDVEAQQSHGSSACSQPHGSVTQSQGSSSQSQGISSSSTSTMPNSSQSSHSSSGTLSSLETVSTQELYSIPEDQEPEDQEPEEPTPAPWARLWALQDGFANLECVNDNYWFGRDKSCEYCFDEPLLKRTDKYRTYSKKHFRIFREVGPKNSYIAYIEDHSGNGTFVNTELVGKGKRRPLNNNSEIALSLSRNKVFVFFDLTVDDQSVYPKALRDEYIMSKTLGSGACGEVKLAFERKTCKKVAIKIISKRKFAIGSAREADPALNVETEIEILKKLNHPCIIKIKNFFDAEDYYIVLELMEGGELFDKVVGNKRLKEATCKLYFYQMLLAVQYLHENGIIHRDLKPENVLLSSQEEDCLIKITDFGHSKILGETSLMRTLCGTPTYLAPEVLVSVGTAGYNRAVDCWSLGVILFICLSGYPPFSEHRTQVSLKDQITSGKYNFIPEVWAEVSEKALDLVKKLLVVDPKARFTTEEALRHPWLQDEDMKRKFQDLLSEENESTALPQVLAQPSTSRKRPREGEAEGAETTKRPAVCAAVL

C[C@H](NC(=O)c1cn(C2(C#N)CC2)cn1)C(=O)Nc1nc(-c2cccc(-c3ccn(C)n3)c2)cs1
delta Tm Staurosporine positive control [1]: 16.7
ΔTm [1]: -1.06
delta Tm Staurosporine positive control [2]: 3.19
ΔTm [2]: 0.296
inhibition (Rattus norvegicus): 64.6%
delta Tm Staurosporine positive control [3]: 1.43
ΔTm [3]: 0.845
inhibition [4]: 16.4%
delta Tm Staurosporine positive control [5]: 2.51
ΔTm [5]: 1.18
delta Tm Staurosporine positive control [6]: 2.78
ΔTm [6]: -0.206
delta Tm Staurosporine positive control [7]: 1.14
ΔTm [7]: -0.0712
delta Tm Staurosporine positive control [8]: 5.06
ΔTm [8]: 1.31
delta Tm Staurosporine positive control [9]: 13.4
ΔTm [9]: 0.0519

COC[C@H](NC(=O)c1ccn(S(C)(=O)=O)c1)C(=O)Nc1nc(-c2cccc(-c3ccn(C)n3)c2)cs1
delta Tm Staurosporine positive control [1]: 16.7
ΔTm [1]: -0.718
delta Tm Staurosporine positive control [2]: 3.19
ΔTm [2]: 0.303
inhibition (Rattus norvegicus): 47.5%
delta Tm Staurosporine positive control [3]: 1.43
ΔTm [3]: 0.637
inhibition [4]: 8.9%
delta Tm Staurosporine positive control [5]: 2.51
ΔTm [5]: 1.43
delta Tm Staurosporine positive control [6]: 2.78
ΔTm [6]: 0.57
delta Tm Staurosporine positive control [7]: 1.14
ΔTm [7]: -0.0969
delta Tm Staurosporine positive control [8]: 5.06
ΔTm [8]: -0.0355
delta Tm Staurosporine positive control [9]: 13.4
ΔTm [9]: 0.528
